Source: patent publication US8952024B2, “Herbicidal pyrimidone derivatives” (E I du Pont de Nemours and Company, priority 2009, dated 2015)

How the values were obtained:
Assay type in all cases: in vivo
[1] = system: barnyardgrass (Echinochloa crus-galli); test: Test A pre-/postemergence plant response
Method in brief: (§1)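 Greenhouse pots of loam/sand received directed preemergence soil sprays or postemergence sprays (plants 2–10 cm, 1–2 leaf stage), compounds formulated in non-phytotoxic solvent with surfactant. Injury was rated visually versus untreated controls after about ten days on a 0 (no effect) to 100 (complete control) scale.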

corn (Zea mays) = test: Test A pre-/postemergence plant response
Method in brief: as §1

[2] = system: giant foxtail (Setaria faberii); test: Test A pre-/postemergence plant response
Method in brief: as §1

[3] = system: large crabgrass (Digitaria sanguinalis); test: Test A pre-/postemergence plant response
Method in brief: as §1

[4] = system: morningglory (Ipomoea spp.); test: Test A pre-/postemergence plant response
Method in brief: as §1

[5] = system: pigweed (Amaranthus retroflexus); test: Test A pre-/postemergence plant response
Method in brief: as §1

[6] = system: velvetleaf (Abutilon theophrasti); test: Test A pre-/postemergence plant response
Method in brief: as §1

[7] = system: wheat (Triticum aestivum); test: Test A pre-/postemergence plant response
Method in brief: as §1

[8] = system: barnyardgrass (Echinochloa crus-galli); test: Test B flooded paddy test; settings: for Plant response rating, Flood, Barnyardgrass: 250 g ai/ha, flooded paddy test, visual rating on 0 to 100 scale (0 no effect, 100 complete control) after 13 to 15 days; for Plant response rating, Barnyardgrass: Flood (flooded paddy test), 13 to 15 days; for Barnyardgrass plant response rating: Flood, 31 g ai/ha, scale 0 to 100 (0 no effect, 100 complete control)
Method in brief: (§2)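 Ratings are visual, 0–100 (100 = complete control), taken versus untreated controls 13 to 15 days after treatment in the greenhouse. Compound went straight into paddy water held 3 cm above soil, applied to 2-leaf-stage plants of four species.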

[9] = system: ducksalad (Heteranthera limosa); test: Test B flooded paddy test; settings: for Plant response rating, Flood, Ducksalad: 250 g ai/ha, flooded paddy test, visual rating on 0 to 100 scale (0 no effect, 100 complete control) after 13 to 15 days; for Plant response rating, Ducksalad: Flood (flooded paddy test), 13 to 15 days; for Ducksalad plant response rating: Flood, 31 g ai/ha, scale 0 to 100 (0 no effect, 100 complete control)
Method in brief: as §2

rice (Oryza sativa) = test: Test B flooded paddy test; settings: for Plant response rating, Flood, Rice: 250 g ai/ha, flooded paddy test, visual rating on 0 to 100 scale (0 no effect, 100 complete control) after 13 to 15 days; for Plant response rating, Rice: Flood (flooded paddy test), 13 to 15 days; for Rice plant response rating: Flood, 31 g ai/ha, scale 0 to 100 (0 no effect, 100 complete control)
Method in brief: as §2

[10] = system: umbrella sedge (Cyperus difformis); test: Test B flooded paddy test; settings: for Plant response rating, Flood, Sedge, Umbrella: 250 g ai/ha, flooded paddy test, visual rating on 0 to 100 scale (0 no effect, 100 complete control) after 13 to 15 days; for Plant response rating, Sedge, Umbrella: Flood (flooded paddy test), 13 to 15 days; for Sedge, Umbrella plant response rating: Flood, 31 g ai/ha, scale 0 to 100 (0 no effect, 100 complete control)
Method in brief: as §2

[11] = Postemergence, 125 g ai/ha, 0 to 100 scale where 0 is no effect and 100 is complete control
[12] = Postemergence, 500 g ai/ha, visual injury, 0 to 100 scale (0 no effect, 100 complete control), approx. ten days
[13] = Preemergence, 125 g ai/ha, 0 to 100 scale, 0 = no effect, 100 = complete control
[14] = Preemergence, 500 g ai/ha, 0 to 100 scale, 0 = no effect, 100 = complete control
[15] = 62 g ai/ha, scale of 0 to 100 where 0 is no effect and 100 is complete control
[16] = 125 g ai/ha, scale 0 to 100, 0 is no effect, 100 is complete control
[17] = Postemergence, 500 g ai/ha, 0 to 100 scale, 0 = no effect, 100 = complete control, approx. ten days
[18] = Preemergence, 500 g ai/ha, visual injury, 0 to 100 scale (0 no effect, 100 complete control), approx. ten days
[19] = Preemergence, 125 g ai/ha, 0 to 100 scale where 0 is no effect and 100 is complete control, approximately ten days
[20] = Postemergence, 125 g ai/ha, visual injury, 0 to 100 scale (0 no effect, 100 complete control), approx. ten days

CCc1ccc(-n2c(-c3ccccc3)ncc(C(=O)C3=C(O)CCCC3=O)c2=O)cc1 [Compound 219]
Plant response rating, Barnyardgrass [1, 11]: 90 | Barnyardgrass plant response rating [1, 12]: 90 | Plant response rating, Barnyardgrass [1, 13]: 40 | Plant response rating, Barnyardgrass [1, 14]: 100 | Plant response rating, Corn (corn (Zea mays); [11]): 0 | Corn plant response rating (corn (Zea mays); [12]): 30 | Plant response rating, Corn (corn (Zea mays); [13]): 0 | Plant response rating, Corn (corn (Zea mays); [14]): 0 | Plant response rating, Foxtail, Giant [2, 11]: 50 | Foxtail, Giant plant response rating [2, 12]: 90 | Plant response rating, Foxtail, Giant [2, 13]: 10 | Plant response rating, Foxtail, Giant [2, 14]: 80 | Plant response rating, Crabgrass, Large [3, 11]: 80 | Crabgrass, Large plant response rating [3, 12]: 100 | Plant response rating, Crabgrass, Large [3, 13]: 50 | Plant response rating, Crabgrass, Large [3, 14]: 100 | Plant response rating, Morningglory [4, 11]: 100 | Morningglory plant response rating [4, 12]: 100 | Plant response rating, Morningglory [4, 13]: 20 | Plant response rating, Morningglory [4, 14]: 80 | Plant response rating, Pigweed [5, 11]: 100 | Pigweed plant response rating [5, 12]: 100 | Plant response rating, Pigweed [5, 13]: 90 | Plant response rating, Pigweed [5, 14]: 100 | Plant response rating, Velvetleaf [6, 11]: 100 | Velvetleaf plant response rating [6, 12]: 100 | Plant response rating, Velvetleaf [6, 13]: 30 | Plant response rating, Velvetleaf [6, 14]: 90 | Plant response rating, Wheat [7, 11]: 0 | Wheat plant response rating [7, 12]: 30 | Plant response rating, Wheat [7, 13]: 0 | Plant response rating, Wheat [7, 14]: 20 | Plant response rating, Flood, Barnyardgrass [8]: 60 | Plant response rating, Barnyardgrass [8, 15]: 0 | Plant response rating, Barnyardgrass [8, 16]: 20 | Barnyardgrass plant response rating [8]: 0 | Plant response rating, Flood, Ducksalad [9]: 90 | Plant response rating, Ducksalad [9, 15]: 20 | Plant response rating, Ducksalad [9, 16]: 65 | Ducksalad plant response rating [9]: 0 | Plant response rating, Flood, Rice (rice (Oryza sativa)): 75 | Plant response rating, Rice (rice (Oryza sativa); [15]): 0 | Plant response rating, Rice (rice (Oryza sativa); [16]): 70 | Rice plant response rating (rice (Oryza sativa)): 0 | Plant response rating, Flood, Sedge, Umbrella [10]: 85 | Plant response rating, Sedge, Umbrella [10, 15]: 40 | Plant response rating, Sedge, Umbrella [10, 16]: 60 | Sedge, Umbrella plant response rating [10]: 20

COCCCn1c(-c2cccc(C)c2)ncc(C(=O)C2=C(O)CCCC2=O)c1=O [Compound 118, 5-[(2-hydroxy-6-oxo-1-cyclohexane-1-yl)carbonyl]-3-(3-methoxypropyl)-2-(3-methylphenyl)-4(3H)-pyrimidinone]
Plant response rating, Barnyardgrass [1, 11]: 90 | Plant response rating, Barnyardgrass [1, 17]: 90 | Plant response rating, Barnyardgrass [1, 13]: 30 | Plant response rating, Barnyardgrass [1, 18]: 90 | Plant response rating, Corn (corn (Zea mays); [11]): 0 | Plant response rating, Corn (corn (Zea mays); [17]): 30 | Plant response rating, Corn (corn (Zea mays); [13]): 0 | Plant response rating, Corn (corn (Zea mays); [18]): 0 | Plant response rating, Foxtail, Giant [2, 11]: 80 | Plant response rating, Foxtail, Giant [2, 17]: 90 | Plant response rating, Foxtail, Giant [2, 13]: 10 | Plant response rating, Foxtail, Giant [2, 18]: 50 | Plant response rating, Crabgrass, Large [3, 11]: 90 | Plant response rating, Crabgrass, Large [3, 17]: 90 | Plant response rating, Crabgrass, Large [3, 13]: 60 | Plant response rating, Crabgrass, Large [3, 18]: 90 | Plant response rating, Morningglory [4, 11]: 100 | Plant response rating, Morningglory [4, 17]: 100 | Plant response rating, Morningglory [4, 13]: 10 | Plant response rating, Morningglory [4, 18]: 70 | Plant response rating, Pigweed [5, 11]: 100 | Plant response rating, Pigweed [5, 17]: 100 | Plant response rating, Pigweed [5, 13]: 90 | Plant response rating, Pigweed [5, 18]: 100 | Plant response rating, Velvetleaf [6, 11]: 100 | Plant response rating, Velvetleaf [6, 17]: 100 | Plant response rating, Velvetleaf [6, 13]: 70 | Plant response rating, Velvetleaf [6, 18]: 80 | Plant response rating, Wheat [7, 11]: 0 | Plant response rating, Wheat [7, 17]: 10 | Plant response rating, Wheat [7, 13]: 0 | Plant response rating, Wheat [7, 18]: 0 | Plant response rating, Flood, Barnyardgrass [8]: 70 | Plant response rating, Barnyardgrass [8, 15]: 50 | Plant response rating, Flood, Ducksalad [9]: 100 | Plant response rating, Ducksalad [9, 15]: 100 | Plant response rating, Flood, Rice (rice (Oryza sativa)): 15 | Plant response rating, Rice (rice (Oryza sativa); [15]): 0 | Plant response rating, Flood, Sedge, Umbrella [10]: 85 | Plant response rating, Sedge, Umbrella [10, 15]: 70

CCc1ccccc1-n1c(-c2ccccc2)ncc(C(=O)C2=C(O)CCCC2=O)c1=O [Compound 255]
Plant response rating, Barnyardgrass [1, 11]: 90 | Barnyardgrass plant response rating [1, 12]: 100 | Plant response rating, Barnyardgrass [1, 19]: 10 | Plant response rating, Barnyardgrass [1, 14]: 100 | Plant response rating, Corn (corn (Zea mays); [11]): 30 | Corn plant response rating (corn (Zea mays); [12]): 70 | Plant response rating, Corn (corn (Zea mays); [19]): 0 | Plant response rating, Corn (corn (Zea mays); [14]): 0 | Plant response rating, Foxtail, Giant [2, 20]: 90 | Foxtail, Giant plant response rating [2, 12]: 90 | Plant response rating, Foxtail, Giant [2, 19]: 0 | Plant response rating, Foxtail, Giant [2, 14]: 50 | Plant response rating, Crabgrass, Large [3, 11]: 90 | Crabgrass, Large plant response rating [3, 12]: 100 | Plant response rating, Crabgrass, Large [3, 19]: 20 | Plant response rating, Crabgrass, Large [3, 14]: 90 | Plant response rating, Morningglory [4, 20]: 100 | Morningglory plant response rating [4, 12]: 100 | Plant response rating, Morningglory [4, 19]: 40 | Plant response rating, Morningglory [4, 14]: 60 | Plant response rating, Pigweed [5, 20]: 90 | Pigweed plant response rating [5, 12]: 100 | Plant response rating, Pigweed [5, 19]: 70 | Plant response rating, Pigweed [5, 14]: 90 | Plant response rating, Velvetleaf [6, 20]: 100 | Velvetleaf plant response rating [6, 12]: 100 | Plant response rating, Velvetleaf [6, 19]: 60 | Plant response rating, Velvetleaf [6, 14]: 100 | Plant response rating, Wheat [7, 20]: 10 | Wheat plant response rating [7, 12]: 50 | Plant response rating, Wheat [7, 19]: 0 | Plant response rating, Wheat [7, 14]: 0 | Plant response rating, Flood, Barnyardgrass [8]: 0 | Plant response rating, Barnyardgrass [8, 15]: 0 | Plant response rating, Barnyardgrass [8, 16]: 0 | Barnyardgrass plant response rating [8]: 0 | Plant response rating, Flood, Ducksalad [9]: 80 | Plant response rating, Ducksalad [9, 15]: 50 | Plant response rating, Ducksalad [9, 16]: 60 | Ducksalad plant response rating [9]: 0 | Plant response rating, Flood, Rice (rice (Oryza sativa)): 0 | Plant response rating, Rice (rice (Oryza sativa); [15]): 0 | Plant response rating, Rice (rice (Oryza sativa); [16]): 0 | Rice plant response rating (rice (Oryza sativa)): 0 | Plant response rating, Flood, Sedge, Umbrella [10]: 60 | Plant response rating, Sedge, Umbrella [10, 15]: 20 | Plant response rating, Sedge, Umbrella [10, 16]: 50 | Sedge, Umbrella plant response rating [10]: 0
